Assay results published in patent US20230003718A1, “METHODS FOR ASSESSING RATES OF DNA REPAIR” (The Johns Hopkins University, priority 2021, published 2023).
pIC50: −log10 of the molar value. “Also recorded” adds a separate entry of the source. Like-named read-outs stand apart in the source and are kept apart here.

Assays:
Format in all cases: cell-based
[1] = system: homologous recombination (HR) repair of Cas9 DSB in HEK293FT cells; test: RepairSwitch assay, rate of HR (EGFP to BFP switch, flow cytometry); settings: for pIC50: RepairSwitch, 1 week after transfection, read-out: IC50 for inhibition of HR rate; for Effect on rate of HR: dose range 1 nm to 10 uM
Experimental: (§1) All cell lines were plated in 12-well plates at 2.5E5 cells/well in their respective growth mediums. The growth medium was then replaced after 24-48 hours and the cells were transfected with lug of CRISPR/Cas9 gRNA construct, lug of HR repair template, or both gRNA and HR repair template (2 ug total) in combination using FuGENE HD (Promega) at a FuGENE to DNA ratio of 3:1. The DNA was mixed with Opti-MEM (50 ul Opti-MEM/ug DNA) and FuGENE was added for an incubation period of 15 minutes before being added dropwise to the well. If drug is being utilized, cells are dosed immediately prior to transfection. Fresh growth medium was replaced every 48-72 hours. Cells were kept in culture for 1 week before assessment of fluorescence via flow cytometry.
(§2) All drugs were dissolved in DMSO as per Selleck instructions. For cell-based work drugs were diluted to a final concentration of 0.001% DMSO. All drugs were given in a dose range of 1 nm to 10 uM, unless toxicity was shown in Incucyte proliferation assays (S1, S2).
(§3) Medium was removed from 12-well plates and cells were detached from plate using TrypLE Express. FBS containing medium was used to neutralize TrypLE Express and cells were collected and spun down at 1000 RPM for 5 min. Cell pellets were then washed with PBS twice before resuspension in 500 ul PBS and put on ice. Prior to flow of each sample, cells were resuspended and put through a cell-strainer cap on the flow tube. Cells were gated to ensure single cell population as well as high DsRed expression. For each sample, 10,000-30,000 high DsRed expressing cells were counted depending on sample concentration, and assessed for both EGFP and BFP expression. FlowJo was utilized to analyze all flow cytometry results and to produce statistics on each population.
Graphpad Prism was utilized to visualize statistical results from FlowJo. Additionally, it was utilized to provide statistical analyses of p value using unpaired t-tests.
The RepairSwitch assay was developed to measure the balance of HR- and NHEJ-mediated double-strand break (DSB) repair. To accomplish this, it was necessary to design assay vectors that could be lenti-virally transduced into cells and would thereby be incorporated into the genome. […] Additionally, it allowed DsRed to serve as a transduction control to ensure vector integration at an MOI of 0.3, while EGFP served as a target for CRISPR/Cas9 induced DSB. […] Additionally, in conjunction with the administration of the CRISPR/Cas9 EGFP gRNA, exogenous single stranded DNA oligos were administered in excess and act as the repair template. In this system, the resulting fluorescence, post CRISPR/Cas9 cutting at the target locus, is dependent on the method of repair. Upon utilization of the repair template in repair via homologous recombination (HR) the resulting locus will be converted from EGFP to BFP. This is possible due to the sequence similarity of these fluorescent proteins, which differ in only two bases, resulting in the substitution of two adjacent amino acids. […] Either, the EGFP fluorescence will be extinguished due to the error prone repair, or it is possible for the EGFP protein to be repaired correctly or with a silent mutation via NHEJ, thereby producing a viable fluorescent signal. […] A schematic of the RepairSwitch assay readout (FIG. 1B) provides a concise overview of the possible fluorescent outcomes and their respective implications.

[2] = system: non-homologous end joining (NHEJ) repair of Cas9 DSB in HEK293FT cells; test: RepairSwitch assay, rate of NHEJ (loss of EGFP, flow cytometry); settings: dose range 1 nm to 10 uM
Experimental: as §1, §2
Medium was removed from 12-well plates and cells were detached from plate using TrypLE Express. FBS containing medium was used to neutralize TrypLE Express and cells were collected and spun down at 1000 RPM for 5 min. […] For each sample, 10,000-30,000 high DsRed expressing cells were counted depending on sample concentration, and assessed for both EGFP and BFP expression. […]
(§4) The RepairSwitch assay was developed to measure the balance of HR- and NHEJ-mediated double-strand break (DSB) repair. […] In this system, the resulting fluorescence, post CRISPR/Cas9 cutting at the target locus, is dependent on the method of repair. […] Either, the EGFP fluorescence will be extinguished due to the error prone repair, or it is possible for the EGFP protein to be repaired correctly or with a silent mutation via NHEJ, thereby producing a viable fluorescent signal. […] A schematic of the RepairSwitch assay readout (FIG. 1B) provides a concise overview of the possible fluorescent outcomes and their respective implications.

[3] = system: homologous recombination (HR) repair of Cas9 DSB in HCT116 cells; test: cells; settings: for Effect on rate of HR: HCT116 cells
Experimental: (§5) All cell lines were plated in 12-well plates at 2.5E5 cells/well in their respective growth mediums. […]. The DNA was mixed with Opti-MEM (50 ul Opti-MEM/ug DNA) and FuGENE was added for an incubation period of 15 minutes before being added dropwise to the well. If drug is being utilized, cells are dosed immediately prior to transfection. Fresh growth medium was replaced every 48-72 hours. Cells were kept in culture for 1 week before assessment of fluorescence via flow cytometry.
(§6) All compounds used can be found listed in Table 1, and all were purchased from Selleck. All drugs were dissolved in DMSO as per Selleck instructions. […].
as §3
Graphpad Prism was utilized to visualize statistical results from FlowJo. […]
as §4

[4] = system: non-homologous end joining (NHEJ) repair of Cas9 DSB in HCT116 cells; test: RepairSwitch assay, rate of NHEJ (loss of EGFP, flow cytometry)
Experimental: as §5, §6
Medium was removed from 12-well plates and cells were detached from plate using TrypLE Express. […] For each sample, 10,000-30,000 high DsRed expressing cells were counted depending on sample concentration, and assessed for both EGFP and BFP expression. […]
The RepairSwitch assay was developed to measure the balance of HR- and NHEJ-mediated double-strand break (DSB) repair. […] In this system, the resulting fluorescence, post CRISPR/Cas9 cutting at the target locus, is dependent on the method of repair. […] Either, the EGFP fluorescence will be extinguished due to the error prone repair, or it is possible for the EGFP protein to be repaired correctly or with a silent mutation via NHEJ, thereby producing a viable fluorescent signal. […]

| Compound | pIC50 ([1]; 168 h) | Effect on rate of HR [1] | Effect on rate of HR ([1]; listed as decitabine) | Effect on rate of NHEJ [2] | Effect on rate of NHEJ ([2]; listed as decitabine) | Effect on rate of HR [3] | Effect on rate of HR ([3]; listed as decitabine) | pIC50 ([3]; Homo sapiens, HCT-116, read-out: IC50 for inhibition of HR rate) | Effect on rate of NHEJ [4] | Effect on rate of NHEJ ([4]; listed as decitabine) | pIC50 [1] |
| --- | --- | --- | --- | --- | --- | --- | --- | --- | --- | --- | --- |
| Nc1ncn([C@H]2C[C@H](O)[C@@H](CO)O2)c(=O)n1 [Decitabine] | 6.73 | dose responsive decrease in the rates of HR | reduced HR | compensatory increase in the rates of NHEJ | increased rates of NHEJ | also consistent in HCT116 cells | reduced HR | 5.85 | also consistent in HCT116 cells | increased rates of NHEJ | – |
| Olaparib | – | lower potency in modulating HR and NHEJ; also recorded: subtle reduction in rates of HR | – | lower potency in modulating HR and NHEJ; also recorded: subtle increase in the rates of NHEJ | – | – | – | – | – | – | 6.13 |
